Measurements as given in patent US4396606A, “Novel polypeptide analgesics” (Addiction Research Foundation, priority 1979, dated 1983).
Where two headings read alike, the source gives them in different places.

Columns and labels:
[1] = tested on: guinea pig ileum myenteric plexus-longitudinal muscle preparation; assay: guinea pig ileum myenteric plexus-longitudinal muscle preparation bioassay; type: cell-based; conditions: for IC50: inhibition of electrically stimulated twitch, geometric mean of several muscle strips
Source text: Starting material was 100 g MSH concentrate, the second oxycellulose adsorbate in commercial ACTH production from procine pituitary glands (Schally et al (1962) Endocrinology 71, 164). The initial steps, with 25 g batches, have been described in Lowney et al (1979) Life Sci. 24, 2377: extraction and back-extraction with butanol; separation from β-endorphin on Bio-Gel P6; preparative reversed-phase HPLC on C18 columns, first with a methanol gradient in trifluoroacetic acid (TFA), then with an acetonitrile gradient in Tris buffer at neutrality, followed by elution of the active material with TFA. Every step was monitored by assay on the guinea pig ileum myenteric plexus-longitudinal muscle preparation. Kosterlitz & Waterfled (1975) Ann. Rev. Pharmacol. 15, 29; Schulz & Goldstein (1973) Brit. J. Pharmacol. 48, 655.
(§1) The guinea pig ileum myenteric plexus-longitudinal muscle preparation was used as described in Kosterlitz et al, supra, and Schulz & Goldstein, supra. […] Geometric means of IC50 values from several muscle strips were obtained, with standard errors in log units. Kd values for naloxone as an antagonist were determined from the ratio of IC50 values in the presence and absence of a fixed naloxone concentration. The mouse vas deferens was used as described in Hughes at al (1975) Brit. J. Pharmacol. 53, 371. IC50 and naloxone Kd values were determined as above.
(§2) Effects of dynorphin-(1-13) in two bioassays. […] Naloxone Kd is the apparent dissociation constant of the antagonist, computed from the equation Kd =[…]/(D.R.-1), derived from the mass law for competitive antagonism, where C=concentration of naloxone (here 100 nM), and D.R.=dose ratio of agonist, the ratio of IC50 doses in the presence and absence of the antagonist. The same procedures were followed with the mouse vas deferens. IC50 values are geometric means, with standard errors in log units, number of tissue preparations in parentheses. Kd determinations were based on four tissue preparations. RX-1 is des-arg^6 -dynorphin-(1-13); RS-2 has gly^6 insertion in dynorphin-(1-13).

[2] = tested on: mouse vas deferens; assay: mouse vas deferens bioassay; type: cell-based; conditions: for IC50: inhibition of electrically stimulated twitch, geometric mean; for Potency in mouse vas deferens / potency in guinea pig ileum: ratio of potencies in the two bioassays
Procedure: as §1, §2

[3] = target: rat brain membranes; assay: radioreceptor binding assay; conditions: for IC50: 1 nM radioligand, 1 h at 23°
Procedure: The radioreceptor binding assay used well washed rat brain membranes that had been incubated for 30 min at 37° with 100 mM NaCl to remove bound endogenous ligands. Blume (1978) Proc. Natl. Acad. Sci. 75, 1713. Several radioligands (1 nM final concentration) and competing ligands were tested. Competing ligands were added to the membrane suspension in Tris buffer, pH 7.4 at 23°, and radioligand was added immediately thereafter. Assay volume was 500 μl. After incubation (1 h, 23°), the mixture was chilled, filtered, washed twice, and counted.
Washed membranes from rat brain homogenate, 1 h incubation at 23°. Data are IC50 values (nM) from complete log dose-inhibition curves for inhibition of stereospecific binding of the various radioligands. […] DADLE=D-ala^2 -D-leu^5 -enkephalin. DHM=dihydromorphine.

[4] = tested on: antiserum to dynorphin (1-13)-thyroglobulin conjugate; assay: dynorphin radioimmunoassay; type: binding, rabbit
Source text: The subject dynorphin was used for the development of immunoassays, illustrated particularly by a radioimmunoassay. For carrying out the immunoassay, it is necessary to prepare antigens which specifically recognize the oligopeptide, in this case dynorphin. To prepare antigen conjugates, thyroglobulin was conjugated to synthetic dynorphin (1-13). The procedure for preparing the antigen conjugate, injecting the antigen conjugate into animals and isolating the antisera is described as follows.
Synthetic dynorphin (1-13) (3.25 μmoles, 5.2 mg) was dissolved in 2 ml of 100 mM sodium phosphate buffer at neutrality. To the mixture was added with agitation 10^5 cpm of ^125 I-dynorphin to serve as a tracer. After addition of the tracer, 26 mg of thyroglobulin (bovine type 1, Sigma) was added and the mixture cooled in an ice-bath after the thyroglobulin dissolved. A 1:100 dilution with cold water of glutaraldehyde (Sigma, Grade 1, 25% aqueous solution) (1 ml) was added dropwise with stirring in a cold room at 4° and agitation continued for 30 min., followed by warming to room temperature and continuing the stirring for 3 hrs.
Based on the coupling efficiency calculated from the cpm of the dialysis bag residue, after lyophilizing, sufficient of the conjugate was employed to provide 50-100 μg of coupled oligopeptide per rabbit. For six rabbits, the dry material was added to 4 ml of 0.9% NaCl, followed by 4 ml of Freund's incomplete adjuvant. The mixture was uniformly dispersed by drawing up and down in a syringe and needle for 30 mins., the mixture divided into six aliquots and approximately 10 to 12 interdermal injections made in a shaved New Zealand White X San Juan hybrid rabbit. Booster injections were made at two week intervals, with a bleeding taken 10 days after the fourth booster shot, 50 ml of blood being removed from the ear artery, allowed to clot, the serum removed and stored frozen.
In small borosilicate tubes was added 25 μl dynorphin (equimolar to Na ^125 I), 50 μl Na ^125 I, and 20 μl chloramine-T and the mixture allowed to react at room temperature for 30-45 mins. The reaction was terminated by adding 100 μl of sodium metabisulfite. After washing a Sephadex G-15 column (1.2×35 cm) with 0.25 M acetic acid and 0.1% bovine serum albumin, the reaction mixture was added and eluted with the same solvent, collecting 1 ml fractions at a rate of 0.3 ml/min, collecting a total of 50 fractions.
Antiserum: A 1:10 dilution of the antiserum in 50 mM sodium phosphate buffer, pH7.4, containing 50 mM NaCl was diluted 1:10^4 with buffer B;
Dynorphin (1-13) standard: Standards were prepared by taking 10 μl of a 10 mM stock solution in water and adding 990 μl of methanolic HCl to make a […] dynorphin solution followed by 1:100 dilutions to provide the desired series.
^125 I-dynorphin (1-13) trace: The trace stored in 0.25 M acetic acid containing 0.1% BSA was diluted to about 5,000 cpm/100 μl with buffer B.
The procedure for the assay was as follows: All solutions were in ice at the outset and all operations were carried out in ice. In a […] borosilicate glass tube was added in the following order 100 μl of dynorphin (1-13) standard or test sample in methanolic HCl; 100 μl of the antiserum dilution; and 100 μl of the trace, followed by incubation at 0°-4° for 24 hrs. Incubation was terminated with a charcoal mixture prepared by mixing 3 g Norit A, 0.3 g dextran, 15 ml horse serum and the mixture brought to 100 ml with buffer A and mixed for 10 min in a cold room before use. To each incubation tube was added 1 ml of a charcoal mixture, the mixture vortexed followed by incubation for 5 min in a cold room and then centifuged at 5000×g for 15 min in a Beckman Model J6B (4200 rpm). To a 13×100 mm borosilicate glass tube was transferred 850 μl of the supernatant and the tube counted for 5 min in a gamma counter.

[5] = treatment with cyanogen bromide
[6] = ^a = unusually shallow slope, read-out: IC50 for inhibition of stereospecific binding, radioligand 3H-DHM
[7] = ^a = unusually shallow slope, read-out: IC50 for inhibition of stereospecific binding, radioligand 3H-DADLE

## Oc1ccc2c3c1O[C@H]1[C@@H](O)C=C[C@H]4[C@@H](C2)NCC[C@@]341 [Normorphine]
[1]; Cavia porcellus
  IC50: 120 nM
[2]; Mus musculus
  IC50: 230 nM
[3]; [6]
  IC50: 5 nM
[3]; with Na, read-out: IC50 for inhibition of stereospecific binding, radioligand 3H-naloxone +Na
  IC50: 260 nM
[3]; without Na, read-out: IC50 for inhibition of stereospecific binding, radioligand 3H-naloxone -Na
  IC50: 21 nM

## C=CCN1CC[C@@]23CCCC[C@@H]2[C@@H]1Cc1ccc(O)cc13 [dextrallorphan]
[3]; 1 μM competing ligand
  effect on radioligand binding: without effect

## C=CCN1CC[C@]23CCCC[C@H]2[C@H]1Cc1ccc(O)cc13 [levallorphan]
[3]; 1 μM final concentration
  displacement of radioligand (stereospecific saturable binding): about 70 % of total binding

## H-tyr-gly-gly-phe-leu-arg-arg-ile-arg-pro-lys-leu-lys-OH [Dynorphin-(1-13)]
[1]; guinea pig ileum test
  potency relative to leu-enkephalin: about 1000 x
  potency relative to normorphine: about 350 x
  potency relative to β-endorphin: about 30 x
[1]
  IC50: 0.63 nM
[1]; unlike β-endorphin
  persistence in the guinea pig ileum test: long persistence
[2]
  IC50: 7.5 nM
  Potency in mouse vas deferens / potency in guinea pig ileum: 0.08
[3]; [7]
  IC50: 43 nM
[3]; [6]
  IC50: 16 nM
[4]; 1 × 10^-13 moles dynorphin per assay tube
  B/Bo: 15
[4]; 1 × 10^-14 moles dynorphin per assay tube
  B/Bo: 45
[4]; 1 × 10^-15 moles dynorphin per assay tube
  B/Bo: 85
[4]; 1 × 10^-16 moles dynorphin per assay tube
  B/Bo: 100
[4]; 5 × 10^-13 moles dynorphin per assay tube
  B/Bo: 5
[4]; 5 × 10^-14 moles dynorphin per assay tube
  B/Bo: 30
[4]; 5 × 10^-15 moles dynorphin per assay tube
  B/Bo: 75
[4]; 5 × 10^-16 moles dynorphin per assay tube
  B/Bo: 100
[5]
  resistance to treatment with cyanogen bromide: relatively resistant

## βc -endorphin [reference compound]
[1]
  IC50: 34 nM
[2]
  Potency in mouse vas deferens / potency in guinea pig ileum: 1.5
[3]; [7]
  IC50: 2.1 nM
[3]; [6]
  IC50: 1.8 nM
